Test results from US4243681A, “Alkylthiophenoxypropanolamines and pharmaceutical compositions and uses thereof” (priority 1979, dated 1981).

Key:
[1] = tested on: mesenteric arteries; assay: Basal tone of mesenteric arteries of rabbits; parameters: species or system rabbit
Excerpt: (§1) (b) The compound of Example 2 elevated basal tone of mesenteric arteries of dogs and rabbits. This effect is considered valuable in the treatment of peripheral and cerebral vascular diseases.

[2] = tested on: perfused dog hind limb; assay: Peripheral vasodilator activity, perfused dog hind limb (anesthetized dog); format: in vivo
Method: Test Method. Mongrol dogs of either sex weighing between 11 and 16 kg., each, were anesthetized with pentobarbital (30 mg./kg.) administered intravenously. The left brachial vein was cannulated and pentobarbital infused continuously throughout the experiment at a rate of 5 mg./kg./hr. A tracheotomy was performed and dogs ventilated mechanically with room air at a rate of 18 strokes/min. and a volume equivalent to 20 ml./kg. The vagi were sectioned bilaterally in the mid-cervical region of the neck. The right brachial vein and artery were cannulated to inject drugs and to monitor blood pressure via a Statham pressure transducer, respectively. All measurements were recorded on a Beckman-Offner dynograph. The abdominal aorta was exposed through midline incision and a loose ligature placed around the aorta distal to the left renal artery. The right (donor) and left (recipient) femoral arteries were exposed for cannulation and subsequent hind-limb perfursion. Following intravenous administration of heparin (5 mg/kg.) and gallamine triethiodide (2 mg./kg.), the right femoral artery was cannulated and the tip of the catheter advanced into the abdominal aorta to the level of the renal arteries. The left femoral artery was cannulated and the hind-limb perfused using a Harvard Perfusion pump. The ligature previously placed around the aorta was subsequently tied to minimize collateral circulation. […] Perfusion pressure, measured at a point distal to the perfusion pump was set equal to 150 mm Hg. by adjusting pump speed. Blood flow to the limb was determined volumetrically at the conclusion of the experiment. The test agent was administered by infusion at a rate of from 0.1-1.0 mg./min. for a six-minute period and maximum reduction in pressure determined. One to three animals were employed per test agent. […] This protocol precludes effects resulting from animal variation thus permitting a direct side-by-side comparison of vasodilating activity.

[3] = tested on: platelet survival; assay: Platelet survival time in rats with intra-arterial catheters; format: in vivo, rat
Excerpt: (a) Rats with intra-arterial catheters have periods of shortened platelet survival time. This shortened survival time is normalized with the compound of Example 2.

[4] = tested on: rabbit thoracic aorta; assay: Isolated rabbit thoracic aorta, antispasmodic activity vs. potassium chloride; format: cell-based, rabbit (New Zealand White); settings: potency relative to papaverine (equals one), from pA2 vs. potassium chloride
Method: Test Method. Antispasmodic activity was assessed in vitro by determining the effect of the test substance on induced contraction of arterial smooth muscle as follows. Adult, male, New Zealand White rabbits (body weight 2.5-4 kg.) were used. Each rabbit was killed by i.v. air injection. The thorax was opened and the descending thoracic aorta removed and placed in Kreb's-bicarbonate solution. Extraneous tissue was removed and the aorta was cut spirally along its entire length. Four spiral segments, each approximately 2 cm. in length (unstretched), were obtained from each thoracic aorta. […] The bath medium surrounding the aortic spiral (Kreb's-bicarbonate solution) was maintained at 37.5°C. and constantly aerated with 95% O2 :5% CO2. Activity of the aortic smooth muscle was recorded on an electronic polygraph via its connection to the tension transducer. After an equilibration period of 60 min., a cumulative dose-response curve was obtained to an agonist (e.g. potassium chloride or norepinephrine) and the tissue then washed. Seventy-five min. later, a second cumulative dose-response curve to the agonist was obtained and the tissue washed again. Sixty min. later, a test drug solution was added to the tissue bath fluid and, after 15 min., drug exposure and, without washing, a third and final agonist-response curve was obtained. All additions to the bath fluid were 0.1 ml. volumes of aqueous solutions.

[5] = tested on: red blood cell; assay: Red blood cell rigidity via chromium^51 labeling technique; format: cell-based
[6] = tested on: guinea pig skin; assay: Local anesthetic activity, intradermal infiltration of guinea pig skin; format: in vivo
[7] = tested on: human platelet-rich plasma; assay: Inhibition of platelet aggregation in vitro (ADP or collagen induced; antithrombogenic activity); format: cell-based
Method: Test Method. A method similar to that described in Born, Nature 194, 927 (1962) and O'Brien, J. Clinical Pathology 15, 446 (1962). This test comprises a nephelometric method in which the change in turbidity of a specimen of human platelet-rich plasma is measured on causation of platelet aggregation by addition of adenosine diphosphate (ADP) or collagen as the thrombogenic inducing agent. An increase in transmittance light occurs when the thrombogenic agent is added to the specimen of platelet-rich plasm due to clumping of platelets. Efficacy of the test compound is determined by ability to prevent the clumping and concommitant increase in transmittance. Various concentrations of the test agent are tested and that concentration causing a 50% reduction in the thrombogenic response is determined from a concentration-response curve.

[8] = biological target: T1, adrenergic beta-receptor (Cavia porcellus, UniProt Q8K4Z4); assay: Beta-adrenergic blocking activity in the isolated guinea pig trachea (isoproterenol); format: cell-based; settings: potency relative to propanol (equals one); isoproterenol 0.1 mcg./ml.
T1 construct: Tracheas excised from adult guinea pigs; from tissue; host or cells: guinea pig trachea (spirally cut segments)
Method: Test Method. […] The lower end of a tracheal segment is fixed to a stationary glass rod and the upper end is threaded to an isometric tension transducer. Changes in the spontaneous tonus of the tracheal smooth muscle are monitored via the transducer and recorded continuously on an electronic recorder. Adrenergic beta-receptor blocking activity is determined by the ability of a test agent to inhibit the response of the isolated tissue to the adrenergic beta-stimulant "isoproterenol" at a concentration of 0.1 mcg./ml. bath fluid. The tissues are exposed to the test agent solution for a 15-min. interval prior to the addition of isoproterenol to the bath fluid. Beta-receptor blocking potency of a test drug is ascertained from concentration-response relationships wherein the response is expressed as a percent inhibition of isoproterenol-induced tissue response. […] Each drug solution is added to the tissue bathing medium at a constant volume of 0.2 ml./ml. of bath fluid and only one test drug concentration is employed for an individual tissue segment. Potency of the test agent relative to that of the beta-adrenergic blocking agent "propanolol" as a reference standard is assessed by comparing the IC50 values.

[9] = tested on: mesenteric arteries; assay: Basal tone of mesenteric arteries of dogs; parameters: species or system dog
Excerpt: as §1

[10] = tested on: rabbit eye; assay: Local anesthetic activity, topical application to the rabbit eye; format: in vivo
[11] = 0.3 mg./min., side-by-side comparison

T1 sequence (Q8K4Z4 whole entry): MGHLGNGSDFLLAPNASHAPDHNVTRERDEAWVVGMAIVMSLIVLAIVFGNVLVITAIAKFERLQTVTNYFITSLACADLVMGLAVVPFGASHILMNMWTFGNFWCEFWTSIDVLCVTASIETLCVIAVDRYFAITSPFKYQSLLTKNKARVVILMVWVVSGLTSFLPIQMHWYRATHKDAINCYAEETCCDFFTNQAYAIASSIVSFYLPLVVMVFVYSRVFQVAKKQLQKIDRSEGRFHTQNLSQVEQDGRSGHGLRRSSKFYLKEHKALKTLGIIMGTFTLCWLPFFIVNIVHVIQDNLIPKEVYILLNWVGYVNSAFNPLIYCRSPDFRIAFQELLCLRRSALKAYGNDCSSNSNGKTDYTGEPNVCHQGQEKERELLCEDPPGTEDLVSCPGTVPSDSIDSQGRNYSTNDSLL

For CCCCCCCCNCC(O)COc1ccc(SC(C)C)cc1.Cl (stereo not drawn) [Example 2, 1-[4-[(1-Methylethyl)thio]phenoxy]-3-(octylamino)-2-propanol Hydrochloride], the “basal tone of mesenteric arteries” value [1] was “elevated”, the “vasodilator effect relative to test agent A” value [2, 11] was “approximately 3.2 times” and the “vasodilator effect relative to test agent B” value [2, 11] was roughly 21 times. For the same compound, the “Pressure Decrease” value ([2]; infusion rate 0.3 mg./min.) was -44 Millimeters of mercury, the “Pressure Decrease” value ([2]; infusion rate 0.3 mg./min., side-by-side comparison in same animals) was -63 Millimeters of mercury and the “Pressure Decrease” value ([2]; infusion rate 1.0 mg./min.) was -99 Millimeters of mercury. The “shortened platelet survival time” value [3] was “normalized”, the “Antispasmodic Potency” value [4] was 0.6 and the “red blood cell rigidity” value [5] was “decreased”. The “local anesthetic activity vs. lidocaine” value [6] was “as great as”, the “ED50 ADP (inhibition of platelet aggregation)” value ([7]; aggregation induced by 1 mcg. ADP) was 56 Microgram/0.5 ml. plateletrich human plasma and the “ED50 Coll (inhibition of platelet aggregation)” value ([7]; minimal amount of collagen producing maximal aggregation) was 31 Microgram/0.5 ml. plateletrich human plasma. The “Beta-Adrenergic Blocking Potency” value [8] was less than 0.001, the “basal tone of mesenteric arteries” value [9] was “elevated” and the “local anesthetic activity vs. lidocaine” value [10] was “greater than”.
